According to US8709740B2, “Control of protein activity using a conducting polymer” (The United States of America, as represented by the …, priority 2005, dated 2014):

Columns and labels:
kinesin = conditions: comparison value, source not given; read-out: inhibition constant Ki (other inhibitors); cited from earlier work
[1] = target: T1, Drosophila sp. kinesin K401-BCCP-His6 (K401-biotin carboxyl carrier protein-His6) (Drosophila melanogaster, UniProt P17210); assay: Michaelis-Menten kinetics of kinesin on poly(OH-EDOT) surface from microtubule gliding speeds at varied ATP concentration; type: biochemical
T1 construct: motor domain, neck linker and part of the coiled coil) of kinesin-1 heavy chain fused to biotin carboxyl carrier protein (BCCP, from E. coli in the known construct) and a His6 tag; microtubules and ATP present
Source text: The protein ensemble (streptavidin, BSA, Drosophila kinesin K401-biotin carboxyl carrier protein (BCCP)-His6 and MTs) was deposited onto the conducting polymer surface (initially doped) using standard flow or droplet deposition methods. Flow cells were assembled using double-sided tape as a spacer creating a channel of approximate dimensions 5 mm×10 mm×0.04 mm. For the non-electrochemical assays, the poly(OH-EDOT)/PET substrate was placed on a glass slide with the conducting polymer layer down. The proteins were introduced using the standard capillary-flow technique. The buffer for all experiments was BRB80 (80 mM Pipes, 2 mM MgCl2, 1 mM EGTA, pH 6.95 with KOH). The flow cells were sequentially filled with a streptavidin solution (Streptomyces avidinii, Sigma-Aldrich, 1.0 mg/mL in BRB80, 10 min deposition time), BSA solution (Sigma-Aldrich, 1.0 mg/mL in BRB80, 10 min deposition time), standard kinesin solution (40 μg/mL kinesin K401-BCCP-His6 with 1 mM ATP in BRB80, 10 min deposition time), and finally a motility buffer with rhodamine-labeled microtubules (1-10 μm in length), containing 1 mM ATP and stabilized with 10 μM Taxol with oxygen scavenging additives (20 mM D-glucose, 20 μg/mL glucose oxidase, 8 μg/mL catalase, 0.2% 2-mercaptoethanol). Flow cells were sealed with immersion oil to prevent evaporation. The assays were performed at room temperature (21° C.).
It has recently been well established that as kinesin hydrolyzes a single ATP molecule, it induces an eight-nanometer movement of a microtubule. Therefore enzyme activity can be indirectly assayed by simply determining the average speed of a large population of microtubules. This was done using fluorescently-labeled microtubules, and their gliding speeds were then carefully measured using confocal microscopy. Microtubules were visualized on the conducting polymer using an Olympus Opelco BX51 fluorescence microscope and their speeds quantified using Metamorph image analysis software (Universal Imaging, Downingtown, Pa.). This assay method was then combined with a transparent electrochemical cell containing a poly(OH-EDOT) support. The poly(OH-EDOT) was ˜80% transparent in the visible range, allowing the microtubules to be easily seen and their speeds measured. […] The surface was then electrochemically doped by applying a bias of […] for 1 minute. The average microtubule speed was measured and found to be 0.40 μm/sec. The resulting ratio in speed differences (dedoped vs. doped surfaces) is 1.55, a striking exact correlation with the ATP hydrolysis ratios on the two surfaces. The surface was then cycled between the two states once more to give an overall cycling history of −1.0 V, +1.0 V, −1.0 V, +1.0 V with corresponding polymer states dedoped, doped, dedoped, doped (FIG. 3). For the second doping cycle the microtubule speeds were 0.63 (dedoped) and 0.40 (doped), giving a speed difference ratio of […].
At this point it was clear that the polymer surface was exerting a direct, reversible effect on the kinesin protein itself. The nature of this influence was examined by treating the charged species in the doped polymer form (the radical cation, or polaron) as an inhibitor, and quantified the enzyme kinetics in terms of Michaelis-Menten parameters. First, the surface concentration of the polarons was calculated using the established value of one polaron per four polymer repeat units for fully doped thiophene-type polymers. […] If one then encloses a kinesin molecule in a cube 30 nm per side and considers the polarons on the 30 nm×30 nm surface region to be distributed in the cube volume, an apparent local polaron concentration ([Iapp]) of 3.89 mM is obtained.
The Michaelis-Menten analysis assumes a kinetic model of the type shown in FIG. 5 (E=enzyme, ES=enzyme-substrate complex, P=product, kcat=catalytic turnover rate constant, Dstep=8 nm, Km=Michaelis constant). The kinetics of most enzymes, including kinesin, is accurately described with this model. […]

[2] = substrate ATP, doped vs dedoped surface

T1 sequence (P17210 1-401): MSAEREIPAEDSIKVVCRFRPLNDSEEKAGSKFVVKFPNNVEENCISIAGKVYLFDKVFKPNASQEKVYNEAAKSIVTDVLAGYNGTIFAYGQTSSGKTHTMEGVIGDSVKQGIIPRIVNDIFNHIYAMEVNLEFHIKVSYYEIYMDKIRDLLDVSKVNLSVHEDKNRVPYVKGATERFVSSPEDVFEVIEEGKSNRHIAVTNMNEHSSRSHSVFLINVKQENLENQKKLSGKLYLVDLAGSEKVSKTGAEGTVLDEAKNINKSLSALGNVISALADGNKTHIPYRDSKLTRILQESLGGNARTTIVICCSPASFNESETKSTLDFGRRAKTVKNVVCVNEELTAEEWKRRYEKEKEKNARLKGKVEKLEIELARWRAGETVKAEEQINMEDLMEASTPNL

For Nc1ncnc2c1ncn2[C@@H]1O[C@H](COP(=O)(O)OP(=O)(O)O)[C@@H](O)[C@H]1O [ADP, adenosine diphosphate], the Ki (kinesin) is listed as 0.048 mM.

For Nc1ncnc2c1ncn2[C@@H]1O[C@H](COP(=O)(O)OP(=O)(O)OP(=O)(O)O)[C@@H](O)[C@H]1O [ATP, adenosine triphosphate], the Speedmax dedoped ([1]; dedoped poly(OH-EDOT) surface, microtubule speed at infinite ATP concentration, 21° C., BRB80 pH 6.95) was 0.943 μm/s ± 0.05, the Speedmax doped ([1]; doped poly(OH-EDOT) surface, microtubule speed at infinite ATP concentration, 21° C., BRB80 pH 6.95) was 0.600 μm/s ± 0.03 and the kcat dedoped ([1]; substrate ATP, dedoped poly(OH-EDOT) surface, 8 nm step per ATP hydrolyzed) was 118 sec^−1 ± 6. The kcat doped ([1]; substrate ATP, doped poly(OH-EDOT) surface, 8 nm step per ATP hydrolyzed) was 75.0 sec^−1 ± 3, the “Km app doped lower than Km dedoped” value [1, 2] was “ca. 35%” and the “kcat doped lower than kcat dedoped” value [1, 2] was “ca. 36%”.

For O=P(O)(O)O [PO4^2−], the Ki (kinesin) is given as 9.3 mM.
